This series can be described thus: Solubility in phosphate buffer pH 7.4. In a few lines: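 3 mg of peptide treated with 100 μL portions of 200 mM phosphate buffer pH 7.4, sonicating/vortexing up to 1 min, with further buffer added until fully dissolved. Solubility then quantified by HPLC.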
Setting [1] is: pH 7.4, aqueous buffer, pH 7.4 Phosphate Buffer - Solubility, 200 mM Phosphate buffer pH 7.4.
Setting [2] is: pH 7.4, solubility in phosphate buffer at pH 7.4, 200 mM phosphate buffer pH 7.4.

Structures are written as SMILES. Starred links: 1 amine or outer side, 2 acyl side, 3 side chain; linkers in the order of their positions; H or OH if unused. Non-standard residues stand in square brackets, D forms with d. Residues, ends and D or L forms follow the SMILES beside them. Groups on a side chain read outwards from the residue. *: point of attachment. C18 diacid = O=C(O)CCCCCCCCCCCCCCCCC(=O)*; C17 diacid = O=C(O)CCCCCCCCCCCCCCCC(=O)*; γGlu = O=C(O)[C@H](CCC(=O)[*:2])N[*:1]; NMeY = CN[C@@H](Cc1ccc(O)cc1)C(=O)O; AEEA = NCCOCCOCC(=O)O; Aib = CC(C)(N)C(=O)O

On to `CC[C@H](C)[C@H](NC(=O)[C@H](Cc1ccccc1)NC(=O)[C@@H](NC(=O)CNC(=O)[C@H](CCC(=O)O)NC(=O)C(C)(C)NC(=O)[C@H](Cc1ccc(O)cc1)NC)[C@@H](C)O)C(=O)N[C@@H](CO)C(=O)N[C@@H](CC(=O)O)C(=O)N[C@@H](Cc1ccc(O)cc1)C(=O)N[C@@H](CO)C(=O)N[C@H](C(=O)NC(C)(C)C(=O)N[C@@H](CC(C)C)C(=O)N[C@@H](CC(=O)O)C(=O)N[C@@H](CCCNC(=N)N)C(=O)NC(C)(C)C(=O)N[C@@H](C)C(=O)N[C@@H](C)C(=O)NC(C)(C)C(=O)N[C@@H](CCCCNC(=O)COCCOCCNC(=O)COCCOCCNC(=O)CC[C@H](NC(=O)CC[C@H](NC(=O)CCCCCCCCCCCCCCCCC(=O)O)C(=O)O)C(=O)O)C(=O)N[C@@H](Cc1ccccc1)C(=O)N[C@H](C(=O)N[C@@H](CC(N)=O)C(=O)N[C@@H](Cc1c[nH]c2ccccc12)C(=O)N[C@@H](CC(C)C)C(=O)N[C@@H](CC(C)C)C(=O)N[C@@H](C)C(=O)N[C@@H](CCC(N)=O)C(=O)N[C@@H](CCCNC(=N)N)C(=O)N1CCC[C@H]1C(=O)N[C@@H](CO)C(=O)N[C@@H](CO)C(=O)NCC(=O)N[C@@H](C)C(=O)N1CCC[C@H]1C(=O)N1CCC[C@H]1C(=O)N1CCC[C@H]1C(=O)N[C@@H](CO)C(N)=O)C(C)C)[C@@H](C)CC` [Compound 106] (H-[NMeY][Aib]EGTFISDYSI[Aib]LDR[Aib]AA[Aib]K([AEEA-AEEA-γGlu-γGlu-C18 diacid])FVNWLLAQRPSSGAPPPS-NH2), for which the solubility by setting is: under setting [1], at least 30 mg/mL; under setting [2], at least 15 mg/mL.
`CC[C@H](C)[C@H](NC(=O)[C@H](Cc1ccccc1)NC(=O)[C@@H](NC(=O)CNC(=O)[C@H](CCC(=O)O)NC(=O)C(C)(C)NC(=O)[C@H](Cc1ccc(O)cc1)NC)[C@@H](C)O)C(=O)N[C@@H](CO)C(=O)N[C@@H](CC(=O)O)C(=O)N[C@@H](Cc1ccc(O)cc1)C(=O)N[C@@H](CO)C(=O)N[C@H](C(=O)NC(C)(C)C(=O)N[C@@H](CC(C)C)C(=O)N[C@@H](CC(=O)O)C(=O)N[C@@H](CCCNC(=N)N)C(=O)N[C@@H](CCCCNC(=O)COCCOCCNC(=O)COCCOCCNC(=O)CC[C@H](NC(=O)CC[C@H](NC(=O)CCCCCCCCCCCCCCCC(=O)O)C(=O)O)C(=O)O)C(=O)N[C@@H](C)C(=O)N[C@@H](CCC(N)=O)C(=O)NC(C)(C)C(=O)N[C@@H](CC(N)=O)C(=O)N[C@@H](Cc1ccccc1)C(=O)N[C@H](C(=O)N[C@@H](CC(N)=O)C(=O)N[C@@H](Cc1c[nH]c2ccccc12)C(=O)N[C@@H](CC(C)C)C(=O)N[C@@H](CC(C)C)C(=O)N[C@@H](C)C(=O)N[C@@H](CCC(N)=O)C(=O)N[C@@H](CCCNC(=N)N)C(=O)NCC(=O)NCC(=O)NCC(=O)NCC(=O)N[C@@H](CO)C(N)=O)C(C)C)[C@@H](C)CC` [Compound 271] (H-[NMeY][Aib]EGTFISDYSI[Aib]LDRK([AEEA-AEEA-γGlu-γGlu-C17 diacid])AQ[Aib]NFVNWLLAQRGGGGS-NH2) gave a solubility (pH 7.4, aqueous buffer) of at least 6 mg/mL.
In the case of `CC[C@H](C)[C@H](NC(=O)[C@H](CO)NC(=O)[C@H](Cc1ccc(O)cc1)NC(=O)[C@H](CC(=O)O)NC(=O)[C@H](CO)NC(=O)[C@@H](NC(=O)[C@H](Cc1ccccc1)NC(=O)[C@@H](NC(=O)CNC(=O)[C@H](CCC(=O)O)NC(=O)C(C)(C)NC(=O)[C@H](Cc1ccc(O)cc1)NC)[C@@H](C)O)[C@@H](C)CC)C(=O)N[C@@H](C)C(=O)N[C@@H](CC(C)C)C(=O)N[C@@H](CC(=O)O)C(=O)N[C@@H](CCCNC(=N)N)C(=O)N[C@H](C(=O)N[C@@H](Cc1c[nH]cn1)C(=O)N[C@@H](CCC(N)=O)C(=O)N[C@@H](CCC(N)=O)C(=O)N[C@@H](CC(N)=O)C(=O)N[C@@H](Cc1ccccc1)C(=O)N[C@H](C(=O)N[C@@H](CC(N)=O)C(=O)N[C@@H](Cc1c[nH]c2ccccc12)C(=O)N[C@@H](CC(C)C)C(=O)N[C@@H](CC(C)C)C(=O)N[C@@H](C)C(=O)N[C@@H](CCC(N)=O)C(=O)N[C@@H](CCCCNC(=O)COCCOCCNC(=O)COCCOCCNC(=O)CC[C@H](NC(=O)CCCCCCCCCCCCCCCCC(=O)O)C(=O)O)C(N)=O)C(C)C)[C@@H](C)CC` [Compound 5] (H-[NMeY][Aib]EGTFISDYSIALDRIHQQNFVNWLLAQK([AEEA-AEEA-γGlu-C18 diacid])-NH2), the solubility by setting is: (pH 7.4) at least 15 mg/mL; (pH 7.4, aqueous buffer) at least 27 mg/mL.
Turning to `CC[C@H](C)[C@H](NC(=O)[C@H](CO)NC(=O)[C@H](Cc1ccc(O)cc1)NC(=O)[C@H](CC(=O)O)NC(=O)[C@H](CO)NC(=O)[C@@H](NC(=O)[C@H](Cc1ccccc1)NC(=O)[C@@H](NC(=O)CNC(=O)[C@H](CCC(=O)O)NC(=O)C(C)(C)NC(=O)[C@H](Cc1ccc(O)cc1)NC)[C@@H](C)O)[C@@H](C)CC)C(=O)N[C@@H](C)C(=O)N[C@@H](CC(C)C)C(=O)N[C@@H](CC(=O)O)C(=O)N[C@@H](CCCNC(=N)N)C(=O)NC(C)(C)C(=O)N[C@@H](Cc1c[nH]cn1)C(=O)N[C@@H](CCC(N)=O)C(=O)NC(C)(C)C(=O)N[C@@H](CCCCNC(=O)COCCOCCNC(=O)COCCOCCNC(=O)CC[C@H](NC(=O)CC[C@H](NC(=O)CCCCCCCCCCCCCCCCC(=O)O)C(=O)O)C(=O)O)C(=O)N[C@@H](Cc1ccccc1)C(=O)N[C@H](C(=O)N[C@@H](CC(N)=O)C(=O)N[C@@H](Cc1c[nH]c2ccccc12)C(=O)N[C@@H](CC(C)C)C(=O)N[C@@H](CC(C)C)C(=O)N[C@@H](C)C(=O)N[C@@H](CCC(N)=O)C(=O)N[C@@H](CCCNC(=N)N)C(N)=O)C(C)C` [Compound 18] (H-[NMeY][Aib]EGTFISDYSIALDR[Aib]HQ[Aib]K([AEEA-AEEA-γGlu-γGlu-C18 diacid])FVNWLLAQR-NH2), the solubility by setting is: (pH 7.4) at least 15 mg/mL; (pH 7.4, aqueous buffer) at least 30 mg/mL.
As to `CC[C@H](C)[C@H](NC(=O)[C@H](CO)NC(=O)[C@H](Cc1ccc(O)cc1)NC(=O)[C@H](CC(=O)O)NC(=O)[C@H](CO)NC(=O)[C@@H](NC(=O)[C@H](Cc1ccccc1)NC(=O)[C@@H](NC(=O)CNC(=O)[C@H](CCC(=O)O)NC(=O)C(C)(C)NC(=O)[C@H](Cc1ccc(O)cc1)NC)[C@@H](C)O)[C@@H](C)CC)C(=O)N[C@@H](C)C(=O)N[C@@H](CC(C)C)C(=O)N[C@@H](CC(=O)O)C(=O)N[C@@H](CCCNC(=N)N)C(=O)NC(C)(C)C(=O)N[C@@H](C)C(=O)N[C@@H](CCC(N)=O)C(=O)NC(C)(C)C(=O)N[C@@H](CC(N)=O)C(=O)N[C@@H](Cc1ccccc1)C(=O)N[C@H](C(=O)N[C@@H](CC(N)=O)C(=O)N[C@@H](Cc1c[nH]c2ccccc12)C(=O)N[C@@H](CC(C)C)C(=O)N[C@@H](CC(C)C)C(=O)N[C@@H](C)C(=O)N[C@@H](CCCCNC(=O)COCCOCCNC(=O)COCCOCCNC(=O)CC[C@H](NC(=O)CC[C@H](NC(=O)CCCCCCCCCCCCCCCCC(=O)O)C(=O)O)C(=O)O)C(=O)N[C@@H](CCCNC(=N)N)C(=O)NCC(=O)O)C(C)C` [Compound 55] (H-[NMeY][Aib]EGTFISDYSIALDR[Aib]AQ[Aib]NFVNWLLAK([AEEA-AEEA-γGlu-γGlu-C18 diacid])RG-OH), the solubility was at least 15 mg/mL (pH 7.4) and at least 30 mg/mL (pH 7.4, aqueous buffer).
Take `CC[C@H](C)[C@H](NC(=O)[C@H](CO)NC(=O)[C@H](Cc1ccc(O)cc1)NC(=O)[C@H](CC(=O)O)NC(=O)[C@H](CO)NC(=O)[C@@H](NC(=O)[C@H](Cc1ccccc1)NC(=O)[C@@H](NC(=O)CNC(=O)[C@H](CCC(=O)O)NC(=O)C(C)(C)NC(=O)[C@H](Cc1ccc(O)cc1)NC)[C@@H](C)O)[C@@H](C)CC)C(=O)N[C@@H](C)C(=O)N[C@@H](CC(C)C)C(=O)N[C@@H](CC(=O)O)C(=O)N[C@@H](CCCNC(=N)N)C(=O)N[C@@H](CCCCNC(=O)COCCOCCNC(=O)COCCOCCNC(=O)CC[C@H](NC(=O)CCCCCCCCCCCCCCCCC(=O)O)C(=O)O)C(=O)N[C@@H](C)C(=O)N[C@@H](CCC(N)=O)C(=O)NC(C)(C)C(=O)N[C@@H](CC(=O)O)C(=O)N[C@@H](Cc1ccccc1)C(=O)N[C@H](C(=O)N[C@@H](CC(N)=O)C(=O)N[C@@H](Cc1c[nH]c2ccccc12)C(=O)N[C@@H](CC(C)C)C(=O)N[C@@H](CC(C)C)C(=O)N[C@@H](C)C(=O)N[C@@H](CCC(N)=O)C(=O)N[C@@H](CCCNC(=N)N)C(=O)N1CCC[C@H]1C(=O)N[C@@H](CO)C(=O)N[C@@H](CO)C(=O)NCC(=O)N[C@@H](C)C(=O)N1CCC[C@H]1C(=O)N1CCC[C@H]1C(=O)N1CCC[C@H]1C(=O)N[C@@H](CO)C(N)=O)C(C)C` [Compound 23] (H-[NMeY][Aib]EGTFISDYSIALDRK([AEEA-AEEA-γGlu-C18 diacid])AQ[Aib]DFVNWLLAQRPSSGAPPPS-NH2): the solubility is, setting by setting: under setting [1], at least 30 mg/mL; under setting [2], at least 15 mg/mL.
For `CC[C@H](C)[C@H](NC(=O)[C@H](Cc1ccccc1)NC(=O)[C@@H](NC(=O)CNC(=O)[C@H](CCC(=O)O)NC(=O)C(C)(C)NC(=O)[C@H](Cc1ccc(O)cc1)NC)[C@@H](C)O)C(=O)N[C@@H](CO)C(=O)N[C@@H](CC(=O)O)C(=O)N[C@@H](Cc1ccc(O)cc1)C(=O)N[C@@H](CO)C(=O)N[C@H](C(=O)NC(C)(C)C(=O)N[C@@H](CC(C)C)C(=O)N[C@@H](CC(=O)O)C(=O)N[C@@H](CCCNC(=N)N)C(=O)NC(C)(C)C(=O)N[C@@H](C)C(=O)N[C@@H](CCC(N)=O)C(=O)NC(C)(C)C(=O)N[C@@H](CCCCNC(=O)COCCOCCNC(=O)COCCOCCNC(=O)CC[C@H](NC(=O)CC[C@H](NC(=O)CCCCCCCCCCCCCCCC(=O)O)C(=O)O)C(=O)O)C(=O)N[C@@H](Cc1ccccc1)C(=O)N[C@H](C(=O)N[C@@H](CC(N)=O)C(=O)N[C@@H](Cc1c[nH]c2ccccc12)C(=O)N[C@@H](CC(C)C)C(=O)N[C@@H](CC(C)C)C(=O)N[C@@H](C)C(=O)N[C@@H](CCC(N)=O)C(=O)N[C@@H](CO)C(=O)N1CCC[C@H]1C(=O)NCC(=O)O)C(C)C)[C@@H](C)CC` [Compound 126] (H-[NMeY][Aib]EGTFISDYSI[Aib]LDR[Aib]AQ[Aib]K([AEEA-AEEA-γGlu-γGlu-C17 diacid])FVNWLLAQSPG-OH), the solubility was at least 15 mg/mL (pH 7.4) and at least 30 mg/mL (pH 7.4, aqueous buffer).

The values above are taken from patent US20230143604A1, “QW DOSING OF GIP RECEPTOR AGONIST PEPTIDE COMPOUNDS AND USES THEREOF” (TAKEDA PHARMACEUTICAL COMPANY LIMITED, priority 2020, published 2023).
